According to PubChem BioAssay (NCI):
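Protocol summary: plate cells (96-well), add compound at 5 concentrations, incubate 48 h, interpolate endpoints linearly. GI50: concentration for 50% inhibition of growth. TGI marks complete inhibition of growth.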

How the values were obtained:
Experiment in all cases: NCI-60 cell line screen, 48 h
K-562 leukemia = system: K-562 leukemia
MALME-3M melanoma = system: MALME-3M melanoma
CCRF-CEM leukemia = system: CCRF-CEM leukemia
MCF7 breast = system: MCF7 breast
OVCAR-4 ovarian = system: OVCAR-4 ovarian
SNB-75 CNS = system: SNB-75 CNS
OVCAR-3 ovarian = system: OVCAR-3 ovarian
DU-145 prostate = system: DU-145 prostate
CAKI-1 renal = system: CAKI-1 renal
NCI-H460 lung = system: NCI-H460 lung
IGROV1 ovarian = system: IGROV1 ovarian
HOP-92 NSCLC = system: HOP-92 NSCLC
T-47D breast = system: T-47D breast
SK-MEL-5 melanoma = system: SK-MEL-5 melanoma
SF-295 CNS = system: SF-295 CNS
SR leukemia = system: SR leukemia
NCI/ADR-RES ovarian = system: NCI/ADR-RES ovarian
BT-549 breast = system: BT-549 breast
HCC-2998 colon = system: HCC-2998 colon
COLO 205 colon = system: COLO 205 colon
HCT-15 colon = system: HCT-15 colon
EKVX NSCLC = system: EKVX NSCLC
UO-31 renal = system: UO-31 renal
786-0 renal = system: 786-0 renal
MDA-MB-435 = system: MDA-MB-435
MOLT-4 leukemia = system: MOLT-4 leukemia
SNB-19 CNS = system: SNB-19 CNS
SW-620 colon = system: SW-620 colon
A549 NSCLC = system: A549 NSCLC
TK-10 renal = system: TK-10 renal
SF-539 CNS = system: SF-539 CNS
NCI-H522 lung = system: NCI-H522 lung
UACC-62 melanoma = system: UACC-62 melanoma
HS 578T breast = system: HS 578T breast
HL-60(TB) leukemia = system: HL-60(TB) leukemia
NCI-H226 lung = system: NCI-H226 lung
SF-268 CNS = system: SF-268 CNS
OVCAR-8 ovarian = system: OVCAR-8 ovarian
M14 melanoma = system: M14 melanoma
ACHN renal = system: ACHN renal
KM12 colon = system: KM12 colon
LOX IMVI melanoma = system: LOX IMVI melanoma
UACC-257 melanoma = system: UACC-257 melanoma
SK-OV-3 ovarian = system: SK-OV-3 ovarian
A498 renal = system: A498 renal
SK-MEL-2 melanoma = system: SK-MEL-2 melanoma
HCT-116 colon = system: HCT-116 colon
RXF 393 renal = system: RXF 393 renal
SK-MEL-28 melanoma = system: SK-MEL-28 melanoma
NCI-H23 lung = system: NCI-H23 lung
RPMI-8226 leukemia = system: RPMI-8226 leukemia
SN12C renal = system: SN12C renal
OVCAR-5 ovarian = system: OVCAR-5 ovarian
HOP-62 NSCLC = system: HOP-62 NSCLC
U251 CNS = system: U251 CNS
PC-3 prostate = system: PC-3 prostate
MDA-MB-231 breast = system: MDA-MB-231 breast
HT29 colon = system: HT29 colon

## O=CNc1c(Cl)cc2c(c1Cl)Cc1cc([N+](=O)[O-])ccc1-2
K-562 leukemia
  GI50: 1.38 µM
  TGI: > 100 µM
MALME-3M melanoma
  GI50: 3.85 µM
  TGI: > 100 µM
CCRF-CEM leukemia
  GI50: 0.445 µM
  TGI: > 100 µM
MCF7 breast
  GI50: 0.34 µM
  TGI: > 100 µM
OVCAR-4 ovarian
  GI50: 6.11 µM
  TGI: > 100 µM
SNB-75 CNS
  GI50: 2.84 µM
  TGI: 21.5 µM
OVCAR-3 ovarian
  GI50: 1.34 µM
  TGI: 8.87 µM
DU-145 prostate
  GI50: 7.72 µM
  TGI: > 49.9 µM
CAKI-1 renal
  GI50: 8.34 µM
  TGI: > 91.2 µM
NCI-H460 lung
  GI50: 2.88 µM
  TGI: 39.5 µM
IGROV1 ovarian
  GI50: 0.923 µM
  TGI: 38.7 µM
HOP-92 NSCLC
  GI50: 6.73 µM
  TGI: > 100 µM
T-47D breast
  GI50: 5.49 µM
  TGI: > 100 µM
SK-MEL-5 melanoma
  GI50: 1.11 µM
  TGI: > 100 µM
SF-295 CNS
  GI50: 3.05 µM
  TGI: 14.3 µM
SR leukemia
  GI50: 2.61 µM
  TGI: > 63.1 µM
NCI/ADR-RES ovarian
  GI50: 4.49 µM
  TGI: 38.3 µM
BT-549 breast
  GI50: 16.3 µM
  TGI: > 86.9 µM
HCC-2998 colon
  GI50: 5.84 µM
  TGI: 39.9 µM
COLO 205 colon
  GI50: 4.76 µM
  TGI: 23.7 µM
HCT-15 colon
  GI50: 3.27 µM
  TGI: > 100 µM
EKVX NSCLC
  GI50: 0.359 µM
  TGI: 13.6 µM
UO-31 renal
  GI50: 1.81 µM
  TGI: 29.3 µM
786-0 renal
  GI50: 20 µM
  TGI: > 77 µM
MDA-MB-435
  GI50: 1.46 µM
  TGI: 3.63 µM
MOLT-4 leukemia
  GI50: 2.13 µM
  TGI: > 100 µM
SNB-19 CNS
  GI50: 16.5 µM
  TGI: > 100 µM
SW-620 colon
  GI50: 3.33 µM
  TGI: > 100 µM
A549 NSCLC
  GI50: 4.55 µM
  TGI: > 100 µM
TK-10 renal
  GI50: 5.63 µM
  TGI: > 59.5 µM
SF-539 CNS
  GI50: 6.15 µM
  TGI: > 100 µM
NCI-H522 lung
  GI50: 3.05 µM
  TGI: > 29.1 µM
UACC-62 melanoma
  GI50: 3.98 µM
  TGI: > 100 µM
HS 578T breast
  GI50: 1.77 µM
  TGI: 14.4 µM
HL-60(TB) leukemia
  GI50: 3.21 µM
  TGI: > 100 µM
NCI-H226 lung
  GI50: 4.21 µM
  TGI: > 94.1 µM
SF-268 CNS
  GI50: 6.63 µM
  TGI: > 100 µM
OVCAR-8 ovarian
  GI50: 11.6 µM
  TGI: > 100 µM
M14 melanoma
  GI50: 2.92 µM
  TGI: > 54.6 µM
ACHN renal
  GI50: 7.83 µM
  TGI: > 100 µM
KM12 colon
  GI50: 2.51 µM
  TGI: 11.9 µM
LOX IMVI melanoma
  GI50: 4.59 µM
  TGI: > 54.7 µM
UACC-257 melanoma
  GI50: 64 µM
  TGI: > 100 µM
SK-OV-3 ovarian
  GI50: 9.92 µM
  TGI: 41.5 µM
A498 renal
  GI50: 4.07 µM
  TGI: 48.4 µM
SK-MEL-2 melanoma
  GI50: 27.9 µM
  TGI: > 86.6 µM
HCT-116 colon
  GI50: 1.02 µM
  TGI: 19.7 µM
RXF 393 renal
  GI50: 10.8 µM
  TGI: 46.4 µM
SK-MEL-28 melanoma
  GI50: 20.2 µM
  TGI: > 100 µM
NCI-H23 lung
  GI50: 5.56 µM
  TGI: > 66.8 µM
RPMI-8226 leukemia
  GI50: 2.59 µM
  TGI: > 100 µM
SN12C renal
  GI50: 14.4 µM
  TGI: > 100 µM
OVCAR-5 ovarian
  GI50: 16.6 µM
  TGI: > 100 µM
HOP-62 NSCLC
  GI50: 5.76 µM
  TGI: > 67.5 µM
U251 CNS
  GI50: 5.87 µM
  TGI: > 76.3 µM
PC-3 prostate
  GI50: 8.06 µM
  TGI: > 100 µM
MDA-MB-231 breast
  GI50: 8.16 µM
  TGI: 47.7 µM
HT29 colon
  GI50: 4.41 µM
  TGI: > 54.8 µM
